Data set [1] can be described thus: Trapping of TCO-KS254 from PBS solution by tetrazine-agarose columns, eluate titrated with [111In]8. Particulars: for Trapping efficiencies of TCO-KS254 polymer compared with resins with shorter or no linker (tetrazines 1, 3 and 5): comparison in words, longer linkers; for % TE mean ± SD, 2nd evaluation, TCO-KS254: repeated 9 days after first evaluation, columns stored at 4° C.; for % TE mean ± SD, 2nd evaluation, TCO-KS254 / % TE mean ± SD, 1st evaluation, TCO-KS254: n = 2; for % TE mean ± SD, 1st evaluation, TCO-KS254: trapping efficiency, single pass, 100 μg/mL in PBS, 0.5 mL/min. The method, then:
(§1) Tetrazine-agarose columns, two for each tetrazine, each prepared from 33 mg of dry NHS-agarose as described above (bed volume approx. 0.25 mL), and a control column prepared from tetrazine-free agarose, were equilibrated with 2-3 bed volumes of PBS. Antibody TCO-CC49 (approx. 1 TCO groups per 20 kDa molecular weight) or polymer TCO-KS254 (approx. 1 TCO group per 5 kDa molecular weight) were dissolved in PBS with to a mass concentration of 100 μg/mL. Aliquots of these solutions (0.4 mL) were pumped through the tetrazine-agarose columns at 0.5 mL/min pumping speed using an infusion pump (AL-1000, World Precision Instruments). When all solution had entered the resin bed, an aliquot of PBS (0.4 mL) was immediately added on top of it and pumped through the column at 0.5 mL/min. Total eluate (total volume approx. 0.8 mL) was collected and the amount of TCO-CC49 or TCO-KS254 was determined by ^111In-tetrazine ([^111In]8) titration.
(§2) For each column, trapping of both TCO-CC49 and TCO-KS254 was tested, and the column was rinsed with 2-3 volumes of PBS between tests. For pairs of columns with the same tetrazine, the order of testing (TCO-CC49 first or TCO-KS254 first) for one column was opposite to the order of testing for another column.
(§3) An aliquot of each trapping column eluate (6 μL) was mixed with an equal volume of 10 μM [111In]8 solution. Resulting mixtures were shaken at 37° C. for at least 1 hour to ensure full consumption of reactive TCO moieties. Then NuPage LDS Sample buffer was added to all mixtures according to the supplier's instructions, samples were heated for 10 min at 70° C. and applied on the NuPAGE 4-12% Bis-Tris SDS-PAGE gels. SDS-PAGE was run in MES-SDS buffer at 150V for 40-45 min. Separation was monitored by running SeeBlue® Plus2 Pre-Stained Protein Standard along with radiolabeled polymer samples. Control mixtures of 6 μL of [^111In]8 solution with 6 μL of PBS and reference mixtures of 6 μL of [^111In]8 solution and 6 μL of 50 μg/mL solutions of TCO-CC49 or TCO-KS254 were prepared and processed in the same manner. Developed gels were exposed against phosphor storage screens (PerkinElmer Multisensitive), which were then read in the Cyclone Plus phosphorimager (Packard Instruments, USA). Autoradiograms were quantified using Optiquant 3.0 software (Packard Instruments). Molecular weight reference ladder from the photo of the same gel aligned and merged to the autoradiogram is shown to the left in FIG. 8. Radioactivity found in the section of the gel corresponding to molecular weights of 60 kDa and above (using SeeBlue standards as reference) was considered polymer-bound or antibody-bound.
(§4) Trapping efficiency (TE) was calculated according to the formula:
(§5) % TE=100%×(1−% BTz/% BnoTz),
(§6) where % BTz is the percentage of polymer/antibody bound ^111In activity in the eluate collected from a column with tetrazine-conjugated agarose, while % BnoTz is the percentage of polymer/antibody bound ^111In activity in the eluate collected from a control column with tetrazine-free agarose.
(§7) For each column, evaluation of trapping efficiency for TCO-CC49 and TCO-KS254 was repeated 9 days after the first evaluation. In between evaluations, the columns were stored at 4° C. in phosphate-buffered saline with 0.1% vol/vol of ProClin™ 150 (Sigma-Aldrich).

The next data set relates to TCO-CC49. Briefly: Trapping of TCO-CC49 from PBS solution by tetrazine-agarose columns, eluate titrated with [111In]8. Particulars: n = 2; for % TE mean ± SD, 2nd evaluation, TCO-CC49: repeated 9 days after first evaluation, columns stored at 4° C.; for % TE mean ± SD, 1st evaluation, TCO-CC49: trapping efficiency, single pass, 100 μg/mL in PBS, 0.5 mL/min. The method, then:
as §1, §2, §3, §4, §5, §6, §7

Data set [2] is described as follows: Dissolution of amino-tetrazine in phosphate-buffered saline. In kind it is physicochemical. As to conditions: PBS, 120 mM NaCl, 10 mM phosphate buffer pH 7.4. As for the experimental part:
Amino-tetrazine (1-6) was dissolved in phosphate-buffered saline (PBS, 120 mM NaCl, 10 mM phosphate buffer pH 7.4) to a concentration of 4 mM (tetrazine 5 could only be dissolved to a concentration of 2.7 mM). This solution was added to dry NHS-activated agarose resin (Pierce/Thermo Fisher Scientific) at the ratio of 1 mL solution per 60 mg resin. The resin was shaken in a plastic tube with a filter frit for 2-3 h at room temperature, then tetrazine solution was removed by vacuum filtration, and the resin was washed 3 times with PBS at the same mL-per-mg resin ratio. After that, Tris-HCl buffer (0.5M, pH 7.4) was added to the resin, the resin was shaken for 2-3 h at room temperature or overnight at 4° C. and washed 3 times with PBS. Control resin (tetrazine-free quenched agarose) was prepared in the same way, but pure PBS without amino-tetrazines was used for the initial incubation.

Counter-ions that a name gives are not always drawn.

Regarding `NCCOCCOCCOCCOCCOCCOCCOCCOCCOCCOCCOCCNC(=O)CCCC(=O)NCc1ccc(-c2nncnn2)cc1` [Tetrazine 4, 37,41-dioxo-41-((4-(1,2,4,5-Tetrazin-3-l)benzyl)amino)-3,6,9,12,15,18,21,24,27,30,33-undecaoxa-36-azahentetracontan-1-aminium trifluoroacetate], in data set [1], the “Trapping efficiencies of TCO-KS254 polymer compared with resins with shorter or no linker (tetrazines 1, 3 and 5)” value is given as “lower trapping efficiencies”; the “% TE mean ± SD, 2nd evaluation, TCO-KS254” value is recorded as 56 ± 2%; the “% TE mean ± SD, 1st evaluation, TCO-KS254” value turned out to be 75 ± 0.2%. In the data set with TCO-CC49, the “% TE mean ± SD, 2nd evaluation, TCO-CC49” value is 92 ± 0.4% and the “% TE mean ± SD, 1st evaluation, TCO-CC49” value is given as 96 ± 6^ %.
Regarding `NCCCCCCCC(=O)Nc1ccc(-c2nnc(-c3ccccn3)nn2)nc1.O=C(O)C(F)(F)F` [Tetrazine 5, 8-amino—N-(6-(6-(pyridin-2-yl)-1,2,4,5-tetrazin-3-yl)pyridin-3-yl)octanamide 2,2,2-trifluoroacetate], in data set [1], the “% TE mean ± SD, 2nd evaluation, TCO-KS254” value is recorded as 67 ± 0.3% and the “% TE mean ± SD, 1st evaluation, TCO-KS254” value came out at 85 ± 5%. The “Concentration to which the tetrazine could be dissolved” value in data set [2] is 2.7 mM. In the data set with TCO-CC49, the “% TE mean ± SD, 2nd evaluation, TCO-CC49” value is given as 89 ± 3^ % and the “% TE mean ± SD, 1st evaluation, TCO-CC49” value came out at 98 ± 0.4%.
Consider `NCc1ccc(-c2nncnn2)cc1.O=C(O)C(F)(F)F` [Tetrazine 3, (4-(1,2,4,5-Tetrazin-3-yl)phenyl)methanaminium trifluoroacetate], for which, in data set [1], the “% TE mean ± SD, 2nd evaluation, TCO-KS254” value is recorded as 78 ± 1% and the “% TE mean ± SD, 1st evaluation, TCO-KS254” value stood at 93 ± 10%. In the data set on TCO-CC49, the “% TE mean ± SD, 2nd evaluation, TCO-CC49” value worked out at 96 ± 0.4% and the “% TE mean ± SD, 1st evaluation, TCO-CC49” value is listed as 99 ± 1^ %.
On to `NCCOCCOCCOCCOCCOCCOCCOCCOCCOCCOCCOCCNC(=O)CCCC(=O)Nc1ccc(-c2nnc(-c3ccccn3)nn2)nc1.O=C(O)C(F)(F)F` [Tetrazine 6, 37,41-dioxo-41-((6-(6-(pyridin-2-yl)-1,2,4,5-tetrazin-3-yl)pyridin-3-yl)amino)-3,6,9,12,15,18,21,24,27,30,33-undecaoxa-36-azahentetracontan-1-aminium trifluoroacetate], for which, in data set [1], the “Trapping efficiencies of TCO-KS254 polymer compared with resins with shorter or no linker (tetrazines 1, 3 and 5)” value is reported as “lower trapping efficiencies”; the “% TE mean ± SD, 2nd evaluation, TCO-KS254” value amounted to 50 ± 6%; the “% TE mean ± SD, 1st evaluation, TCO-KS254” value amounted to 64 ± 0%. In addition, in the data set on TCO-CC49, the “% TE mean ± SD, 2nd evaluation, TCO-CC49” value is 72 ± 1^ % and the “% TE mean ± SD, 1st evaluation, TCO-CC49” value is listed as 93 ± 7^ %.
